Test results: ChEMBL document CHEMBL1133442, “Symmetrical bis(heteroarylmethoxyphenyl)alkylcarboxylic acids as inhibitors of leukotriene biosynthesis” (J Med Chem, 2000)

How the values were obtained:
Type in all cases: functional
[1] = tested on: Rattus norvegicus; test: Inhibition of leukotriene production in an ionophore-induced rat pleurisy model at 3 mg/kg; details: for inhibition in vivo at 3 mg/kg: Rattus norvegicus
[2] = species on record: Homo sapiens; test: Inhibition of calcium ionophore (A-23187) stimulated leukotriene B4 (LTB4) formation in human neutrophils at 390 nM
[3] = species on record: Homo sapiens; test: Inhibition of calcium ionophore (A-23187) -stimulated leukotriene B4 (LTB4) formation in human neutrophils at 390 nM
[4] = tested on: Rattus norvegicus; test: In vivo inhibition evaluation of leukotriene inhibition in an ionophore-induced rat pleurisy at 3 mg/kg

O=C(O)CC(c1ccc(OCc2ccc3ccccc3n2)cc1)c1ccc(OCc2ccc3ccccc3n2)cc1
inhibition in vivo at 3 mg/kg [1]: 17% | IC50 ([2]; Homo sapiens): 60 nM

CC(CC(c1ccc(OCc2ccc3ccccc3n2)cc1)c1ccc(OCc2ccc3ccccc3n2)cc1)C(=O)O (stereo not drawn) [listing 1 of 2 here]
Inhibition [1]: 43% | inhibition at 0.39 µM ([3]; Homo sapiens): 82%

CC(O)(c1ccc(OCc2ccc3ccccc3n2)cc1)c1ccc(OCc2ccc3ccccc3n2)cc1
inhibition in vivo at 3 mg/kg [1]: 0% | IC50 ([2]; Homo sapiens): 50 nM

CC(CCC(=O)O)(c1ccc(OCc2nc3ccccc3s2)cc1)c1ccc(OCc2nc3ccccc3s2)cc1 [listing 1 of 2 here]
IC50 [2]: 50 nM

C/C(=N\OC1CCC(c2ccc(OCc3ccc4ccccc4n3)cc2)(c2ccc(OCc3ccc4ccccc4n3)cc2)CC1)C(=O)O
inhibition in vivo at 3 mg/kg [1]: 48% | IC50 ([2]; Homo sapiens): 37 nM

CC(/C=C/C(=O)O)=N\OC(c1ccc(OCc2ccc3ccccc3n2)cc1)c1ccc(OCc2ccc3ccccc3n2)cc1
inhibition in vivo at 3 mg/kg [1]: 27% | IC50 ([2]; Homo sapiens): 30 nM

O=C(O)CSC(c1ccc(OCc2ccc3ccccc3n2)cc1)c1ccc(OCc2ccc3ccccc3n2)cc1
IC50 ([2]; Homo sapiens): 58 nM

CC(CC(c1ccc(OCc2ccc3ccccc3n2)cc1)c1ccc(OCc2ccc3ccccc3n2)cc1)C(=O)O (stereo not drawn) [listing 2 of 2 here]
inhibition in vivo at 3 mg/kg [1]: 53% | IC50 ([2]; Homo sapiens): 46 nM

O=C(O)/C=N/OC1CCC(c2ccc(OCc3ccc4ccccc4n3)cc2)(c2ccc(OCc3ccc4ccccc4n3)cc2)CC1
inhibition in vivo at 3 mg/kg [1]: 15% | inhibition at 0.39 µM ([3]; Homo sapiens): 54%

CC(CCCC(=O)O)(c1ccc(OCc2ccc3ccccc3n2)cc1)c1ccc(OCc2ccc3ccccc3n2)cc1 [listing 1 of 2 here]
Inhibition [1]: 32% | IC50 [2]: 43 nM

CC(C)(C(=O)O)C(c1ccc(OCc2ccc3ccccc3n2)cc1)c1ccc(OCc2ccc3ccccc3n2)cc1
inhibition in vivo at 3 mg/kg [1]: 50% | IC50 ([2]; Homo sapiens): 100 nM

Cn1c(COc2ccc(C(C)(CCC(=O)O)c3ccc(OCc4nc5ccccc5n4C)cc3)cc2)nc2ccccc21
Inhibition [1]: 0% | Inhibition [3]: 27%

CC(C(=O)O)(c1ccc(OCc2ccc3ccccc3n2)cc1)c1ccc(OCc2ccc3ccccc3n2)cc1
Inhibition [1]: 25% | IC50 ([2]; Homo sapiens): 32 nM

O=C(O)C=C(c1ccc(OCc2ccc3ccccc3n2)cc1)c1ccc(OCc2ccc3ccccc3n2)cc1
inhibition in vivo at 3 mg/kg [1]: 11% | IC50 ([2]; Homo sapiens): 50 nM

CC(C)(CO/N=C/C(=O)O)C(c1ccc(OCc2ccc3ccccc3n2)cc1)c1ccc(OCc2ccc3ccccc3n2)cc1
inhibition in vivo at 3 mg/kg [1]: 27% | IC50 ([2]; Homo sapiens): 34 nM

CC(CCC(=O)O)(c1ccc(OCc2ccc3ccccc3c2)cc1)c1ccc(OCc2ccc3ccccc3c2)cc1
IC50 ([2]; Homo sapiens): 830 nM

Cn1c(COc2ccc(C(C)(CCC(=O)[O-])c3ccc(OCc4nc5ccccc5n4C)cc3)cc2)nc2ccccc21.[Na+]
Inhibition [1]: 29% | Inhibition [3]: 59%

O=C(O)CON=C(c1ccc(OCc2ccc3ccccc3n2)cc1)c1ccc(OCc2ccc3ccccc3n2)cc1
inhibition in vivo at 3 mg/kg [1]: 0% | IC50 ([2]; Homo sapiens): 32 nM

OC(c1ccc(OCc2ccc3ccccc3n2)cc1)c1ccc(OCc2ccc3ccccc3n2)cc1
inhibition in vivo at 3 mg/kg [1]: 2% | IC50 ([2]; Homo sapiens): 170 nM

CC(SCC(=O)O)(c1ccc(OCc2ccc3ccccc3n2)cc1)c1ccc(OCc2ccc3ccccc3n2)cc1
inhibition in vivo at 3 mg/kg [1]: 0% | inhibition at 0.39 µM ([3]; Homo sapiens): 62%

CC(CCC(=O)O)(c1ccc(OCc2cnc3ccccc3n2)cc1)c1ccc(OCc2cnc3ccccc3n2)cc1
inhibition in vivo at 3 mg/kg [1]: 14% | inhibition at 0.39 µM ([3]; Homo sapiens): 47%

O=C(O)CSC(c1ccc(OCc2ccc3ccccc3n2)cc1)(c1ccc(OCc2ccc3ccccc3n2)cc1)c1cccs1 [listing 1 of 2 here]
inhibition in vivo at 3 mg/kg [1]: 80%

CC(CCC(=O)O)(c1ccc(OCc2ccccn2)cc1)c1ccc(OCc2ccccn2)cc1
inhibition in vivo at 3 mg/kg [4]: 0% | inhibition at 0.39 µM [3]: 53%

CC(CCC(=O)O)(c1ccc(OCc2ccc3ccccc3n2)cc1)c1ccc(OCc2nc3ccccc3s2)cc1 (stereo not drawn) [listing 1 of 2 here]
inhibition in vivo at 3 mg/kg [1]: 35% | inhibition at 0.39 µM ([3]; Homo sapiens): 95%

C/C(=N\OCCC#CC(O)(c1ccc(OCc2ccc3ccccc3n2)cc1)c1ccc(OCc2ccc3ccccc3n2)cc1)C(=O)O
inhibition in vivo at 3 mg/kg [1]: 40% | IC50 ([2]; Homo sapiens): 59 nM

CC(CCC(=O)[O-])(c1ccc(OCc2ccc3ccccc3c2)cc1)c1ccc(OCc2ccc3ccccc3n2)cc1.[Na+] (stereo not drawn)
Inhibition [1]: 40%

O=C(O)/C=N/OC(c1ccc(OCc2ccc3ccccc3n2)cc1)c1ccc(OCc2ccc3ccccc3n2)cc1
inhibition in vivo at 3 mg/kg [1]: 37% | IC50 ([2]; Homo sapiens): 68 nM

C/C(=N\OCCC(C)(c1ccc(OCc2ccc3ccccc3n2)cc1)c1ccc(OCc2ccc3ccccc3n2)cc1)C(=O)O
inhibition in vivo at 3 mg/kg [1]: 23% | inhibition at 0.39 µM ([3]; Homo sapiens): 54%

CC(CCC(=O)O)(c1ccc(OCc2ccc3ccccc3n2)cc1)c1ccc(OCc2nc3ccccc3s2)cc1 (stereo not drawn) [listing 2 of 2 here]
IC50 ([2]; Homo sapiens): 52 nM

O=C([O-])CC(c1ccc(OCc2ccc3ccccc3n2)cc1)c1ccc(OCc2ccc3ccccc3n2)cc1.[Na+]
Inhibition [1]: 30% | IC50 [2]: 70 nM

CC(CCC(=O)O)(c1ccc(OCc2ccc3ccccc3c2)cc1)c1ccc(OCc2ccc3ccccc3n2)cc1 (stereo not drawn)
inhibition in vivo at 3 mg/kg [1]: 55% | inhibition at 0.39 µM ([3]; Homo sapiens): 93%

O=C(O)/C=N/OCC=C(c1ccc(OCc2ccc3ccccc3n2)cc1)c1ccc(OCc2ccc3ccccc3n2)cc1
inhibition in vivo at 3 mg/kg [1]: 17% | inhibition at 0.39 µM ([3]; Homo sapiens): 100%

O=C(O)CO/N=C/C(c1ccc(OCc2ccc3ccccc3n2)cc1)c1ccc(OCc2ccc3ccccc3n2)cc1
IC50 ([2]; Homo sapiens): 35 nM

CC(CCC(=O)O)(c1ccc(OCc2ccc3cc(F)ccc3n2)cc1)c1ccc(OCc2ccc3cc(F)ccc3n2)cc1
inhibition in vivo at 3 mg/kg [1]: 42% | IC50 ([2]; Homo sapiens): 40 nM

C/C(=N\OC(c1ccc(OCc2ccc3ccccc3n2)cc1)c1ccc(OCc2ccc3ccccc3n2)cc1)C(=O)O
ED50 [4]: 1.5 mg/kg | IC50 ([2]; Homo sapiens): 21 nM

CC(CC/C=N\OCC(=O)O)(c1ccc(OCc2ccc3ccccc3n2)cc1)c1ccc(OCc2ccc3ccccc3n2)cc1
inhibition in vivo at 3 mg/kg [1]: 0% | IC50 ([2]; Homo sapiens): 40 nM

OCC1CCC(c2ccc(OCc3ccc4ccccc4n3)cc2)(c2ccc(OCc3ccc4ccccc4n3)cc2)CC1
inhibition at 0.39 µM ([3]; Homo sapiens): 28%

CC(CCCO)(c1ccc(OCc2ccc3ccccc3n2)cc1)c1ccc(OCc2ccc3ccccc3n2)cc1
inhibition in vivo at 3 mg/kg [1]: 7% | IC50 ([2]; Homo sapiens): 130 nM

O=C(O)CON=C1CCC(c2ccc(OCc3ccc4ccccc4n3)cc2)(c2ccc(OCc3ccc4ccccc4n3)cc2)CC1
inhibition in vivo at 3 mg/kg [1]: 0% | IC50 ([2]; Homo sapiens): 65 nM

O=C(O)C(c1ccc(OCc2ccc3ccccc3n2)cc1)c1ccc(OCc2ccc3ccccc3n2)cc1
IC50 ([2]; Homo sapiens): 60 nM

C/C(=N\OCC=C(c1ccc(OCc2ccc3ccccc3n2)cc1)c1ccc(OCc2ccc3ccccc3n2)cc1)C(=O)O
inhibition in vivo at 3 mg/kg [1]: 42% | IC50 ([2]; Homo sapiens): 20 nM

C/C(CCC(=O)O)=N\OC(c1ccc(OCc2ccc3ccccc3n2)cc1)c1ccc(OCc2ccc3ccccc3n2)cc1
ED50 [4]: 1 mg/kg | IC50 ([2]; Homo sapiens): 50 nM

CC(C(=O)[O-])(c1ccc(OCc2ccc3ccccc3n2)cc1)c1ccc(OCc2ccc3ccccc3n2)cc1.[Na+]
Inhibition [1]: 46% | IC50 [2]: 37 nM

Cn1c(COc2ccc(C(C)(CCC(=O)O)c3ccc(OCc4ccc5ccccc5n4)cc3)cc2)nc2ccccc21 (stereo not drawn)
Inhibition [1]: 0% | IC50 [2]: 80 nM

CC(CCC(=O)[O-])(c1ccc(OCc2ccc3ccccc3n2)cc1)c1ccc(OCc2ccc3ccccc3n2)cc1.[Na+]
ED50 [4]: 3 mg/kg | IC50 [2]: 20 nM

OC(c1ccc(OCc2ccc3ccccc3n2)cc1)(c1ccc(OCc2ccc3ccccc3n2)cc1)c1cccs1
inhibition in vivo at 3 mg/kg [1]: 0% | inhibition at 0.39 µM ([3]; Homo sapiens): 87%

CC(CCC(=O)O)(c1ccc(OCc2nc3ccccc3s2)cc1)c1ccc(OCc2nc3ccccc3s2)cc1 [listing 2 of 2 here]
inhibition in vivo at 3 mg/kg [1]: 0% | IC50 ([2]; Homo sapiens): 46 nM

CCOC(=O)C1CCC(c2ccc(OCc3ccc4ccccc4n3)cc2)(c2ccc(OCc3ccc4ccccc4n3)cc2)CC1
IC50 ([2]; Homo sapiens): 1900 nM

O=C(O)C1CCC(c2ccc(OCc3ccc4ccccc4n3)cc2)(c2ccc(OCc3ccc4ccccc4n3)cc2)CC1
Inhibition [1]: 0% | IC50 [2]: 60 nM

O=C(O)CSC(c1ccc(OCc2ccc3ccccc3n2)cc1)(c1ccc(OCc2ccc3ccccc3n2)cc1)c1cccs1 [listing 2 of 2 here]
ED50 [4]: 1.1 mg/kg | IC50 ([2]; Homo sapiens): 11 nM

O=C([O-])C=C(c1ccc(OCc2ccc3ccccc3n2)cc1)c1ccc(OCc2ccc3ccccc3n2)cc1.[Na+]
Inhibition [1]: 19% | IC50 [2]: 40 nM

CC(C)(/C=N/OCC(=O)O)C(c1ccc(OCc2ccc3ccccc3n2)cc1)c1ccc(OCc2ccc3ccccc3n2)cc1
inhibition in vivo at 3 mg/kg [1]: 42% | IC50 ([2]; Homo sapiens): 28 nM

CC(CC(=O)O)(c1ccc(OCc2ccc3ccccc3n2)cc1)c1ccc(OCc2ccc3ccccc3n2)cc1
inhibition in vivo at 3 mg/kg [1]: 0% | IC50 ([2]; Homo sapiens): 170 nM

Cn1c(COc2ccc(C(C)(CCC(=O)[O-])c3ccc(OCc4ccc5ccccc5n4)cc3)cc2)nc2ccccc21.[Na+] (stereo not drawn)
Inhibition [1]: 10% | IC50 ([2]; Homo sapiens): 90 nM

O=C(O)C#CC(O)(c1ccc(OCc2ccc3ccccc3n2)cc1)c1ccc(OCc2ccc3ccccc3n2)cc1
inhibition in vivo at 3 mg/kg [1]: 48% | inhibition at 0.39 µM ([3]; Homo sapiens): 98%

O=C(O)CSC(c1ccccc1)(c1ccc(OCc2ccc3ccccc3n2)cc1)c1ccc(OCc2ccc3ccccc3n2)cc1
IC50 ([2]; Homo sapiens): 87 nM

CC(CCCO/N=C/C(=O)O)(c1ccc(OCc2ccc3ccccc3n2)cc1)c1ccc(OCc2ccc3ccccc3n2)cc1
inhibition in vivo at 3 mg/kg [1]: 0% | IC50 ([2]; Homo sapiens): 30 nM

CC(CCCC(=O)O)(c1ccc(OCc2ccc3ccccc3n2)cc1)c1ccc(OCc2ccc3ccccc3n2)cc1 [listing 2 of 2 here]
inhibition in vivo at 3 mg/kg [1]: 35% | IC50 ([2]; Homo sapiens): 32 nM

O=C([O-])C1CCC(c2ccc(OCc3ccc4ccccc4n3)cc2)(c2ccc(OCc3ccc4ccccc4n3)cc2)CC1.[Na+]
Inhibition [1]: 18% | IC50 ([2]; Homo sapiens): 47 nM

CC(CCC(=O)O)(c1ccc(OCc2ccc3ccccc3n2)cc1)c1ccc(OCc2ccc3ccccc3n2)cc1
ED50 [4]: 1.5 mg/kg | IC50 ([2]; Homo sapiens): 23 nM

C/C(=N\OCCCC(C)(c1ccc(OCc2ccc3ccccc3n2)cc1)c1ccc(OCc2ccc3ccccc3n2)cc1)C(=O)O
inhibition in vivo at 3 mg/kg [1]: 4% | IC50 ([2]; Homo sapiens): 35 nM

O=C(O)CO/N=C/C=C(c1ccc(OCc2ccc3ccccc3n2)cc1)c1ccc(OCc2ccc3ccccc3n2)cc1
inhibition in vivo at 3 mg/kg [1]: 10% | IC50 ([2]; Homo sapiens): 26 nM
